One experiment relates to mouse ATDC5 cells. Kind of experiment: Peptide binding to cell surface, confocal laser scanning microscopy. The experiment is classed as cell-based. The note with it: biotin-labeled peptide 260 nmol, 540 nmol, 1.08 mmol; streptavidin-FITC, DAPI. The source says:
The mouse ATDC5 chondrogenic cell line is an important chondrocyte model that has been widely used in the study of chondrocyte proliferation and differentiation. This cell line was used to evaluate the membrane-binding ability of the modified peptide, as articular cartilage (which contains chondrocytes) is one of the main cellular components in the joint cavity. The cells were purchased from Guangzhou Jennio Biotech Co., Ltd. (Guangzhou, China) and maintained in Dulbecco's Modified Eagle Medium (DMEM, ThermoFisher, America) supplemented with 10% fetal bovine serum (FBS, Gibco, Australia) at 37°C in a humidified atmosphere with 5% CO2. The 5th−10th passages of the cells were used in the study.
To assess the binding ability of the modified peptide to the cell membrane, the three peptides were labeled with biotin at the C-terminus. […] The cells were washed and resuspended in PBS and then the binding of the peptides to the cell membrane was assessed by flow cytometry (BD Biosciences, California, USA). […] The binding of the peptides to the cell membrane was then assessed by staining with streptavidin-FITC (eBioscience). […] They were then analyzed by confocal laser scanning microscopy (Leica, Germany).
Figure 3 Modified peptide non-specifically bound to the cell surface. (A) Binding of peptides to the surface of mouse ATDC5 cells measured by flow cytometry. […]

For experiment [1], the system named is mice with antigen-induced arthritis (AIA). In words: Knee joint swelling in antigen-induced arthritis (AIA). The experiment is classed as in vivo, mouse. The settings on record: 40 μg peptide + 25 μg mBSA in 10 μl PBS intraarticular; days 2, 3 and 4 after induction; n = 6; **p < 0.01. As for the experimental part:
(§1) AIA was induced in male C57BL/6J wildtype mice (8–10 weeks of age) according to a previously described protocol (Ebbinghaus et al., [2017]) with minor modifications. Briefly, the mice were intraperitoneally injected with 200 ng pertussis toxin (List Biological Laboratories, California, USA) prior to being subcutaneously immunized with 100 μg methylated bovine serum albumin (mBSA; Sigma-Aldrich, St. Louis, Missouri, USA) emulsified in Freund's complete adjuvant (Sigma-Aldrich). The immune response was boosted with identical subcutaneous mBSA immunizations at 14 and 21 days after the first immunization. At 28 days after the initial immunization, the right knee joint of each mouse was intraarticularly injected with 10 μl PBS as the control, while the left knee joint received either 10 μl PBS only (normal group), 25 μg mBSA (to induce AIA) in 10 μl PBS (AIA-only group), 40 μg modified peptide with 25 μg mBSA in 10 μl PBS (modified peptide+AIA group), or 40 μg original peptide with 25 μg mBSA in 10 μl PBS (original peptide+AIA group). Every day after AIA induction (and intraarticular peptide treatment), the difference in the joint diameter (swelling in mm) between the right and left knee joints in each mouse was assessed using a digital micrometer to evaluate the AIA severity. Each joint was measured three times and the mean diameter was calculated and recorded. […]

The test system is the same in experiment [2]. Kind of experiment: Histology (HE) of AIA knee joints. The settings on record: for synovial histology (HE): 40 μg peptide + 25 μg mBSA intraarticular, day 3 post-AIA induction, n = 6. The experiment is classed as in vivo, mouse. As for the experimental part:
as §1
To assess the therapeutic effects of the peptides on AIA, the mice were euthanized on day 3 post-AIA induction. […] The degree of histopathologic tissue damage was quantified using the following previously described cumulative score for evaluating disease severity (Durigutto et al., [2013]). […] Additionally, according to the immunofluorescence protocol, tissue deposition of MAC was assessed by immunofluorescence assay with incubating rabbit anti-mouse C9 IgG (Sigma-Aldrich) at a 1:200 dilution overnight at 4°C followed by incubation with FITC-labeled goat anti-rabbit IgG (DAKO, Glostrup, Denmark) at a 1:200 dilution for an additional 60 min at room temperature (Lei et al., [2020]). […]

The test system of experiment [3] is membrane attack complex (MAC). In words: MAC (C9) deposition in AIA knee joints (immunofluorescence). The settings on record: 40 μg peptide + 25 μg mBSA intraarticular; day 3 post-AIA induction; anti-mouse C9 immunofluorescence; n = 6. The experiment is classed as in vivo. As for the experimental part: as §1, with “At 28 days after the initial immunization, the right knee joint of each mouse was intraarticularly injected with 10 μl PBS as the control, while the left knee joint received either 10 μl PBS only (normal group), 25 μg mBSA (to induce AIA) in 10 μl PBS (AIA-only group), 40 μg modified peptide with 25 μg mBSA in 10 μl PBS (modified peptide+AIA group), or 40 μg original peptide with 25 μg mBSA in 10 μl PBS (original peptide+AIA group).” left out
To assess the therapeutic effects of the peptides on AIA, the mice were euthanized on day 3 post-AIA induction. […] The degree of histopathologic tissue damage was quantified using the following previously described cumulative score for evaluating disease severity (Durigutto et al., [2013]). […]

In the next experiment the test system is C9 / MAC. The note with it: previous study; ref Zhao et al., 2014; cited from earlier work. The source says:
Paramyosin, a dimeric fibrillar protein, not only forms the thick myofilaments of invertebrate muscle, but also occurs on the surface of helminths and serves as a potential modulator of the host immune system by interacting with human collagen, calgranulin and so on (Zhao et al., [2014]).

The values that follow come from article PMC7785802, “Therapeutic Efficacy of a Trichinella Spiralis Paramyosin-Derived Peptide Modified With a Membrane-Targeting Signal in Mice With Antigen-Induced Arthritis” (Frontiers in Microbiology, 2020).

For the substance “Myr-GSSKSPSKKKKKKPG-ACP-VSMGKSLSSKVYVM [modified peptide, Ts-pmy-derived peptide modified with a membrane-targeting signal]”, in the experiment on mouse ATDC5 cells, the “binding to surface of ATDC5 cells (confocal microscopy)” value is “could bind to the surface of mouse ATDC5 cells”. Further, in experiment [1], the “joint swelling (left vs right knee diameter) compared to AIA-only mice” value was “significant reductions in joint swelling on days 2, 3, and 4 after disease induction”. The “synovial histology (HE)” value in experiment [2] was “milder synovial hyperplasia and inflammatory cell infiltration compared to the AIA-only or original peptide+AIA mice”. Also, in experiment [2] (40 μg peptide intraarticular at the time of AIA induction, cumulative score (synovial hyperplasia, leukocyte infiltration, fibrosis), no numbers given), the histopathological scores result was “significantly decreased”. The “MAC deposition in synovial connective tissue” value in experiment [3] was “significantly weaker”.
On to “VSMGKSLSSKVYVM [original peptide, tetradecapeptide derived from Trichinella spiralis paramyosin (Ts-pmy)]”, for which the “synovial histology (HE)” value in experiment [2] is “severe edema, hyperplasia, and inflammatory cell infiltration compared to normal joints”. Further, in experiment [3], the “MAC deposition in synovial connective tissue” value is recorded as “clearly detected”. In addition, the “inhibition of MAC assembly” value with C9 / MAC is “inhibited the assembly of MAC”.
